Assay results as given in patent US11542257B2, “Arylnaphthalene compounds as vacuolar-ATPase inhibitors and the use thereof” (priority 2018, dated 2023).
Like-named read-outs stand apart in the source and are kept apart here.

What was measured:
V-ATPase [1] = target: T1, V-ATPase (Homo sapiens, UniProt P27449+Q93050); type: biochemical
in vitro = conditions: human
[2] = tested on: endosomal acidification in HEK293 cells; assay: cells; type: cell-based; conditions: for IC50: read-out: HEK AO IC50
Ebolavirus (EBOV) = assay: organism not typed; type: cell-based; conditions: for IC50: read-out: EBOV IC50
[3] = tested on: endosomal acidification in A549 cells; assay: Inhibition of cellular endosomal acidification, acridine orange (AO), A549 cells; type: cell-based
[4] = Cytotoxicity (MTT), A549 cells; conditions: human
[5] = tested on: filoviral infection of primary human macrophages (PHM); type: cell-based, filovirus; conditions: read-out: PHM Antiviral IC50
Marburg virus (MARV) = type: cell-based
V-ATPase [6] = target: T1, V-ATPase; assay: Acridine orange quenching in isolated HEK293 vesicles (proton-pumping function of V-ATPase); type: biochemical
[7] = tested on: cytosolic pH of HEK293 cells; assay: Cytosolic pH, BCECF-AM, HEK293 cells; type: cell-based; conditions: FIG. 1B
A549 cells = assay: Cytotoxicity (MTT), A549 cells; conditions: read-out: A549 CC50, 72 h, MTT

T1 sequence (P27449 whole entry, looked up): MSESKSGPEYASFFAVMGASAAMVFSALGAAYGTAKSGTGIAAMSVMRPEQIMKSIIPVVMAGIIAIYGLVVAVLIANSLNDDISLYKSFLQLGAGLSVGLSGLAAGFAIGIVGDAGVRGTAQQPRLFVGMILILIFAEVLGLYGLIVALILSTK
T1 sequence (Q93050 whole entry, looked up): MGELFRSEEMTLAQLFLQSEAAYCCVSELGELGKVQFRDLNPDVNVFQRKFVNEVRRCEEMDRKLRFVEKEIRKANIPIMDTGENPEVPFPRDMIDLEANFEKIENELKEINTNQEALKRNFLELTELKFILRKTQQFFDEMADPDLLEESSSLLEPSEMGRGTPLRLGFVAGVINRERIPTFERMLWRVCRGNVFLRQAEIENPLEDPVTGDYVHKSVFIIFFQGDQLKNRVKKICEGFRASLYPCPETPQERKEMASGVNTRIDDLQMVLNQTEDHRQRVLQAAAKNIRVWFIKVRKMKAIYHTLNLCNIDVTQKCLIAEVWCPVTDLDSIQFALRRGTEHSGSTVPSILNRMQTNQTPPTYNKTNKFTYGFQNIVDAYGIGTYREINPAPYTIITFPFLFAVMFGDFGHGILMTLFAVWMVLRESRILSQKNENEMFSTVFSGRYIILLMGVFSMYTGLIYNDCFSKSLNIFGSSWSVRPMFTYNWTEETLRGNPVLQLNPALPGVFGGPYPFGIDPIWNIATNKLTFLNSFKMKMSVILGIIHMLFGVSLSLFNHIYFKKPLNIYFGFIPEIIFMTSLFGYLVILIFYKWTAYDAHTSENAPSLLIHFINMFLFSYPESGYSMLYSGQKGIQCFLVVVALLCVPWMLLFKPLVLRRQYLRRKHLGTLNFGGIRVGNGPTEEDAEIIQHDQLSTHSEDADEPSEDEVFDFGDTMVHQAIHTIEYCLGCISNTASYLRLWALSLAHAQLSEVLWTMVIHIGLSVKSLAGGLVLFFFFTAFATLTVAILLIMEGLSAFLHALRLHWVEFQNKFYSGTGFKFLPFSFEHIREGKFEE

SMILES | CC50 (in vitro) [nM] | IC50 [2] [nM] | IC50 (Ebolavirus (EBOV)) [nM] | IC50 [3] [nM] | CC50 at 72 h [4] [nM] | IC50 ([2]; Homo sapiens, HEK293, 4 h) [nM] | IC50 (Ebolavirus (EBOV); HeLa) [nM] | other results
COc1cc2c(OC)c3c(c(-c4ccc5c(c4)OCO5)c2cc1OC)C(=O)OC3 [Compound 2b, 9-(benzo[d][1,3]dioxol-5-yl)-4,6,7-trimethoxynaphtho[2,3-c]furan-1(3H)-one] | 5730 ± 841 | 265 ± 58.6 | 171 ± 40.2 | 58.2 ± 8.76 | > 100000 |  |  | inhibition of ATP hydrolysis, in words (V-ATPase [1]): inhibited ATP hydrolysis to a similar extent
COc1cc2c(OCCCN3CCOCC3)c3c(c(-c4ccc5c(c4)OCO5)c2cc1OC)C(=O)OC3 [Compound 2g, 9-(benzo[d][1,3]dioxol-5-yl)-6,7-dimethoxy-4-(3-morpholinopropoxy)naphtho[2,3-c]furan-1(3H)-one] |  | 74.3 ± 23.9 | 107 ± 23.7 | 56.1 ± 15.9 | > 100000 |  |  | inhibition of ATP hydrolysis, in words (V-ATPase [1]): inhibited ATP hydrolysis to a similar extent; IC50 [5]: 57.7 ± 8.6 nM; IC50 (Marburg virus (MARV)): 135 ± 11.4 nM; times better activity than diphyllin (proton pumping activity of V-ATPase) (V-ATPase [6]): 7 times
COc1cc2c(O)c3c(c(-c4ccc5c(c4)OCO5)c2cc1OC)C(=O)N(/N=C/c1c(F)c(F)c(F)c(F)c1F)C3 [Compound 3h, (E)-9-(benzo[d][1,3]dioxol-5-yl)-4-hydroxy-6,7-dimethoxy-2-(((perfluorophenyl)methylene)amino)-2,3-dihydro-1H-benzo[f]isoindol-1-one] |  |  |  |  |  | > 10000 | 8740 ± 2180 | 
CO/C1=C\C(C)=C\[C@@H](C)[C@@H](O)[C@@H](C)C/C(C)=C/C=C/[C@H](OC)[C@@H]([C@@H](C)[C@@H](O)[C@H](C)[C@@]2(O)C[C@@H](O)[C@H](C)[C@@H](C(C)C)O2)OC1=O [Baf A1, bafilomycin A1, reference compound] |  | 40.5 ± 3.31 | 14.9 ± 8.93 | 21.3 ± 2.55 |  |  |  | CC50 (HEK293 cells): 320 ± 42 nM; change in cytosolic pH compared to the vehicle treated control [7]: no significant change; CC50 (A549 cells): 479 ± 266 nM
COc1cc2c(OC(C)=O)c3c(c(-c4ccc5c(c4)OCO5)c2cc1OC)C(=O)N(CCO)C3=O [Compound 1e, 9-(benzo[d][1,3]dioxol-5-yl)-2-(2-hydroxyethyl)-6,7-dimethoxy-1,3-dioxo-2,3-dihydro-1H-benzo[f]isoindol-4-yl acetate] |  |  |  |  |  | > 10000 | 5400 ± 2920 | effect on endosomal acidification (AO fluorescence ratio), in words [2]: did not cause a significant change in the fluorescence ratio; active in screen for inhibition of ebolavirus infection (Ebolavirus (EBOV)): active
C#CCOc1c2c(c(-c3ccc4c(c3)OCO4)c3cc(OC)c(OC)cc13)C(=O)OC2 [Compound 2d, 9-(benzo[d][1,3]dioxol-5-yl)-6,7-dimethoxy-4-(prop-2-yn-1-yloxy)naphtho[2,3-c]furan-1(3H)-one] | 2040 |  |  |  |  | 263 ± 46.6 | 175 ± 21.7 | 
COc1cc2c(O)c3c(c(-c4ccc5c(c4)OCO5)c2cc1OC)C(=O)N(/N=C/c1cccnc1)C3 [Compound 3c, (E)-9-(benzo[d][1,3]dioxol-5-yl)-4-hydroxy-6,7-dimethoxy-2-((pyridin-3-ylmethylene)amino)-2,3-dihydro-1H-benzo[f]isoindol-1-one] | 49900 ± 15900 | 8710 ± 769 | 4480 ± 467 | 11600 | 50100 ± 27700 |  |  | times less effective than diphyllin (AO quenching) (V-ATPase [6]): 2 times
COc1cc2c(O)c3c(c(-c4ccc5c(c4)OCO5)c2cc1OC)C(=O)N(N)C3 [Compound 3a, 2-amino-9-(benzo[d][1,3]dioxol-5-yl)-4-hydroxy-6,7-dimethoxy-2,3-dihydro-1H-benzo[f]isoindol-1-one] | 48900 ± 3610 |  |  |  | 28700 ± 16600 | 9060 ± 893 | 3940 ± 604 | effect on endosomal acidification (AO fluorescence ratio), in words [2]: moderately inhibited acidification; IC50 ([3]; Homo sapiens): 8110 ± 670 nM
COc1cc2c(OCCCC#N)c3c(c(-c4ccc5c(c4)OCO5)c2cc1OC)C(=O)OC3 [Compound 2f, 4-((9-(benzo[d][1,3]dioxol-5-yl)-6,7-dimethoxy-1-oxo-1,3-dihydronaphtho[2,3-c]furan-4-yl)oxy)butanenitrile] | 3310 ± 740 |  |  |  |  | 98.7 ± 29.5 | 93.1 ± 26.8 | 
